According to patent US20030144345A1, “Treatment of metabolic diseases with soraphen derivatives” (priority 2001, published 2003):

How the values were obtained:
[1] = test system: Wistar rats; test: Lipid utilization by indirect calorimetry; format: in vivo, rat
Excerpt: b) Indirect calorimetry. Substrate utilization can be measured indirectly from respiratory gas exchanges. The method is based on the measurement of oxygen (O2) consumption and carbon-dioxide (CO2) release, both originating from the oxidation of the energetic substrates that progressively release the chemical energy stored in the carbon-hydrogen bonds of carbohydrates, lipids (and proteins). The amounts of carbohydrate and lipid being oxidized in the body at any given time can be calculated from the volumes of 02 consumption and CO2 exhalation by laboratory animals (and humans) in metabolic chambers. For a review of the methodology and the theoretical basis of indirect calorimetry, see Ferrannini, Metabolism, 37, 287-301, 1988.
An established, commercially available metabolic chamber apparatus (Oxymax, columbus Instruments, Ohio) was used to determine the gas exchange of vehicle-treated and compound (Ia)-treated Wistar rats in order to make precise and noninvasive measurements of the changes in the nature of the energetic substrate being oxidized by Wistar rats. Table 5 summarizes the data of the calculated lipid utilization determined for animals treated with two doses of compound (Ia), 10 and 30 mg/kg, administered subcutaneously 30 min. before starting the gas exchange measurements.

[2] = test system: differentiated L6 cells; test: Fatty acid (palmitate) oxidation assay with differentiated rat L6 muscle cells;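 note: differentiated rat L6 myotubes fed [14C]-palmitate, with oxidation read as 14CO2 trapped on filters and counted by liquid scintillation after 3 to 8 h at 37 °C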
Description: Labeling medium to assay oxidation of fatty acids was composed of glucose-deficient DMEM containing 3.7 g/l NaHCO3, 25 mM HEPES-NaOH, 0.5% fatty acid-free bovine serum albumin (BSA), 0.1% ethanol, 0.5% DMSO (or test compounds dissolved in DMSO), 5 mM D-glucose, and 16 μM unlabeled palmitate plus 0.25 μM [U-^14C]palmitate (approx. 800 mCi/mmol). After the addition of labeling medium, the cell culture plates were sealed air tight with self adhesive Super Sealing Film (Life Systems Design, #02-2796-3001). Before sealing, twelve 1 cm^2 squares of filter paper (Schleicher & Schuell, #GB004) pretreated with 50 μl of highly basic tissue solubilizer solution NCSII (Amersham Pharmacia, #NNCS-502) were attached to the lower side of the sealing film. Upon sealing of the tissue culture plates, the filters were positioned in the center above each well, and served to capture the evolving ^14CO2 that was produced by the cells in each individual well. After an incubation between 3 to 8 hours at 37° C., the filters were removed from the sealing film and the captured ^14CO2 was quantitated by liquid scintillation counting with 2 ml of scintillation cocktail BCS-NA (Amersham Pharmacia, #NBCS204) in a Tri-Carb liquid scintillation counter (Canberra Packard).
Cultivation of the differentiating rat muscle cell line L6 for fatty acid oxidation assays was performed as follows. For routine passaging, L6 cells (ATCC) were grown in T75 flasks in 15 ml of MEM Alpha medium (Gibco BRL Life Technologies, #22571-038), containing 10% heat inactivated FBS and 1% antibiotic/antimycotic solution (Gibco BRL Life Technologies, #15240-062). Incubation was done at 37° C. in a humid atmosphere containing 5% CO2. The cells were passaged twice per week by trypsinization.
For fatty acid oxidation assays, each well of a 12-well tissue culture plate was seeded with 2 to 5×10^4 cells in 1 ml of MEM Alpha, 10% FBS, 1% antibiotic/antimycotic solution. After 3 days, medium was exchanged by 1 ml of the same, fresh medium. After 5 days, medium was exchanged again, this time by 1 ml of medium containing 2% FBS, 1% antibiotic/antimycotic solution. After 7 days, the cells were fully differentiated and formed large multinucleated myotubes. At this stage, the medium was replaced by 1 ml of glucose-deficient DMEM supplemented with 3.7 g/l NaHCO3 and 25 mM HEPES-NaOH followed by a starvation period of 2 to 6 hours at 37° C. […] The compounds were tested at three different concentrations (2, 0.2 and 0.02 μM) on differentiated L6 cells.

[3] = L6, repeated test Table 3, 0.002 μM
[4] = L6, repeated test Table 3, 0.02 μM
[5] = L6, repeated test Table 3, 0.2 μM

## CO[C@H]1CCCC[C@@H](c2ccccc2)OC(=O)[C@@H](C)C2(O)O[C@H]([C@@H](C)[C@H](O)[C@H]2OC)[C@@H](C)/C=C/[C@H]1OC [Cpd (Ia), Soraphen A 1-α]
[1]; 10 mg/kg s.c., 33.5 min
  % increase over vehicle: 12.6%
  Accumulated lipid utilization: 0.24 g/kg body weight
[1]; 10 mg/kg s.c., 67 min
  % increase over vehicle: 9.6%
  Accumulated lipid utilization: 0.49 g/kg body weight
[1]; 10 mg/kg s.c., 100.5 min
  % increase over vehicle: 9.8%
  Accumulated lipid utilization: 0.76 g/kg body weight
[1]; 10 mg/kg s.c., 134 min
  % increase over vehicle: 9.8%
  Accumulated lipid utilization: 1.03 g/kg body weight
[1]; 10 mg/kg s.c., 167.5 min
  % increase over vehicle: 9.2%
  Accumulated lipid utilization: 1.31 g/kg body weight
[1]; 10 mg/kg s.c., 201 min
  % increase over vehicle: 8.4%
  Accumulated lipid utilization: 1.61 g/kg body weight
[1]; 10 mg/kg s.c., 234.5 min
  % increase over vehicle: 7.8%
  Accumulated lipid utilization: 1.89 g/kg body weight
[1]; 10 mg/kg s.c., 268 min
  % increase over vehicle: 7.9%
  Accumulated lipid utilization: 2.17 g/kg body weight
[1]; 10 mg/kg s.c., 301.5 min
  % increase over vehicle: 7.7%
  Accumulated lipid utilization: 2.44 g/kg body weight
[1]; 10 mg/kg s.c., 335 min
  % increase over vehicle: 7.2%
  Accumulated lipid utilization: 2.73 g/kg body weight
[1]; 10 mg/kg s.c., 368.5 min
  % increase over vehicle: 6.3%
  Accumulated lipid utilization: 3.03 g/kg body weight
[1]; 30 mg/kg s.c., 33.5 min
  % increase over vehicle: 28.4%
  Accumulated lipid utilization: 0.27 g/kg body weight
[1]; 30 mg/kg s.c., 67 min
  % increase over vehicle: 19.2%
  Accumulated lipid utilization: 0.54 g/kg body weight
[1]; 30 mg/kg s.c., 100.5 min
  % increase over vehicle: 14.5%
  Accumulated lipid utilization: 0.79 g/kg body weight
[1]; 30 mg/kg s.c., 134 min
  % increase over vehicle: 13.2%
  Accumulated lipid utilization: 1.06 g/kg body weight
[1]; 30 mg/kg s.c., 167.5 min
  % increase over vehicle: 12.5%
  Accumulated lipid utilization: 1.35 g/kg body weight
[1]; 30 mg/kg s.c., 201 min
  % increase over vehicle: 11.8%
  Accumulated lipid utilization: 1.66 g/kg body weight
[1]; 30 mg/kg s.c., 234.5 min
  % increase over vehicle: 11.7%
  Accumulated lipid utilization: 1.96 g/kg body weight
[1]; 30 mg/kg s.c., 268 min
  % increase over vehicle: 12.2%
  Accumulated lipid utilization: 2.26 g/kg body weight
[1]; 30 mg/kg s.c., 301.5 min
  % increase over vehicle: 12.5%
  Accumulated lipid utilization: 2.55 g/kg body weight
[1]; 30 mg/kg s.c., 335 min
  % increase over vehicle: 12.3%
  Accumulated lipid utilization: 2.86 g/kg body weight
[1]; 30 mg/kg s.c., 368.5 min
  % increase over vehicle: 11.5%
  Accumulated lipid utilization: 3.18 g/kg body weight
[1]; 10 and 30 mg/kg s.c.
  Duration of effect on lipid oxidation: at least 6 hours
[2]; L6, Table 2, 0.02 μM
  Fold stimulation: 1.8 fold
  Palmitate oxidation rate: 16.4 +/− 1.0 pmol · h^−1 · well^−1
[2]; L6, Table 2, 0.2 μM
  Fold stimulation: 1.8 fold
  Palmitate oxidation rate: 15.8 +/− 0.5 pmol · h^−1 · well^−1
[2]; L6, Table 2, 2 μM
  Fold stimulation: 1.7 fold
  Palmitate oxidation rate: 14.9 +/− 0.4 pmol · h^−1 · well^−1
[2]; [3]
  Fold stimulation: 1.5 fold
  Palmitate oxidation rate: 8.3 +/− 0.0 pmol · h^−1 · well^−1
[2]; [4]
  Fold stimulation: 2.2 fold
  Palmitate oxidation rate: 12.1 +/− 1.0 pmol · h^−1 · well^−1
[2]; [5]
  Fold stimulation: 2.7 fold
  Palmitate oxidation rate: 14.6 +/− 0.1 pmol · h^−1 · well^−1
[2]; Rattus norvegicus, L6, read-out: EC50 for stimulation of palmitate oxidation
  EC50: 2 to 20 nM
